In ChEMBL document CHEMBL1201862, “PubChem BioAssay data set” (2004):
The source made the active and inactive calls.

How the values were obtained:
Protein skinhead-1 = target: T1, Protein skinhead-1 (Caenorhabditis elegans, UniProt P34707); type: functional
T1 sequence (P34707 whole entry): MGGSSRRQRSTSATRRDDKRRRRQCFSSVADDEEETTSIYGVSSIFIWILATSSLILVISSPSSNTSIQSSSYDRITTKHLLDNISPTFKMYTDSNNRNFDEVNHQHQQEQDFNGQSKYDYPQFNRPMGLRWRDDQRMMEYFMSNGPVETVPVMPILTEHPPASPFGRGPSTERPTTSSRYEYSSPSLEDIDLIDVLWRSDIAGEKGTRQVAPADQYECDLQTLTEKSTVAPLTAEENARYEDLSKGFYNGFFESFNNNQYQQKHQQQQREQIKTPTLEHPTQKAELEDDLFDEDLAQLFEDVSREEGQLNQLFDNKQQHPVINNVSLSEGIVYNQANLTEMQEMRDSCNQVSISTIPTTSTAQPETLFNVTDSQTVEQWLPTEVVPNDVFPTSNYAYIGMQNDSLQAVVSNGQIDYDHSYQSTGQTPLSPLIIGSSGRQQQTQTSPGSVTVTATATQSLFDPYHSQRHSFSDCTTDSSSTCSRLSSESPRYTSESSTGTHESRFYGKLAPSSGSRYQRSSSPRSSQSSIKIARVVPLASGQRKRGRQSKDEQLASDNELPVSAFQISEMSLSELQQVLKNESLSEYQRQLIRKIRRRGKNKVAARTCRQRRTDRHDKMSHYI

[1] = target: T2, Apoptotic protease-activating factor 1 (Homo sapiens, UniProt O14727); type: functional
T2 sequence (O14727 whole entry): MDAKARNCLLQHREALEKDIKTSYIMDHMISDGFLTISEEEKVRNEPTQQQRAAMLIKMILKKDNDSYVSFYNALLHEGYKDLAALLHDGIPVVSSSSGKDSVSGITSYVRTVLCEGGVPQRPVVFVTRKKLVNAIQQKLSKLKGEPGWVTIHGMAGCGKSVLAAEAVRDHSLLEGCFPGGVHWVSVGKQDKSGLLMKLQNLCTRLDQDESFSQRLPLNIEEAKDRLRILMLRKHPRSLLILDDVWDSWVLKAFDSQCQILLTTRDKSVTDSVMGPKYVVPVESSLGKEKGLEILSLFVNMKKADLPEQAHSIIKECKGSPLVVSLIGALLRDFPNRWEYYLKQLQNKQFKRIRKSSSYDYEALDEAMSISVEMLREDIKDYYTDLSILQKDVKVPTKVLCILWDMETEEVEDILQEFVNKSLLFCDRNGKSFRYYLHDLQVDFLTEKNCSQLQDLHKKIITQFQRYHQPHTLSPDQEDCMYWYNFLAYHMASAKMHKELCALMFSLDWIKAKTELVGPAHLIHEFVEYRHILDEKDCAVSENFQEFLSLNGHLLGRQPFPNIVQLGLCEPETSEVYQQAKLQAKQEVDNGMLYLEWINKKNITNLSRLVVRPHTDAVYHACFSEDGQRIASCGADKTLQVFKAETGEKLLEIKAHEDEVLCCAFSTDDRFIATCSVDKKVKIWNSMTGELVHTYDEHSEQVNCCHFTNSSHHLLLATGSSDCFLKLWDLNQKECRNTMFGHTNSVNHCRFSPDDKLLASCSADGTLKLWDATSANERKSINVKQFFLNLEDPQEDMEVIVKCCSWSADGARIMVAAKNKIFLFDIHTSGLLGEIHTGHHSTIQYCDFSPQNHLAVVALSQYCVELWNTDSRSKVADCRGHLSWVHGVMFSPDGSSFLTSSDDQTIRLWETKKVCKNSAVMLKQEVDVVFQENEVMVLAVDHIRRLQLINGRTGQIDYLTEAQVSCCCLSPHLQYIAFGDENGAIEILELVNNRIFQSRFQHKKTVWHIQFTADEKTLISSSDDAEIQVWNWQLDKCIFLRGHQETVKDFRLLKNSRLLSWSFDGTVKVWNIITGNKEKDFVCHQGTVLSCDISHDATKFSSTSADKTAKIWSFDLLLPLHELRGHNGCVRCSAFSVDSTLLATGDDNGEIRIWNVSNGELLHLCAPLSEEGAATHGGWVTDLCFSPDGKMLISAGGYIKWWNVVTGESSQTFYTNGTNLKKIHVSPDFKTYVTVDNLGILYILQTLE

[2] = Luminescence Cell-Based Dose Response HTS to Identify Activators of Luciferase Translation or Activity in H4 […] Cells. [Related pubchem assays: 1829 (Project Summary), 1814 (Primary HTS)]; type: functional
[3] = Luminescence Cell-Based Dose Confirmation HTS to Identify Activators of 5'UTR Stem-Loop Driven Alpha-Synuclein mRNA Translation in H4 Neuroglioblastoma Cells. [Related pubchem assays: 1829 (Project Summary), 1814 (Primary HTS)]; type: functional
H4 = test: Luminescence Cell-Based Dose Response HTS to Identify Activators of 5'UTR Stem-Loop Driven Prion Protein mRNA Translation in H4 Neuroglioblastoma Cells. [Related pubchem assays: 1829 (Project Summary), 1814 (Primary HTS)]; type: functional; details: Homo sapiens
Cytochrome P450 3A4 = Cytochrome P450 3A4 (Homo sapiens, UniProt P08684);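 note: CYP3A4 tested as one member of a cytochrome P450 panel screen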
[4] = target: T3, Microphthalmia-associated transcription factor (Homo sapiens, UniProt O75030); test: TRPM1 promoter luciferase signal decrease, dose response, MITF inhibitor project, cell-based, SK-MEL-5, cherry-picked, set 3 (AID 493073); type: functional
T3 sequence (O75030 whole entry): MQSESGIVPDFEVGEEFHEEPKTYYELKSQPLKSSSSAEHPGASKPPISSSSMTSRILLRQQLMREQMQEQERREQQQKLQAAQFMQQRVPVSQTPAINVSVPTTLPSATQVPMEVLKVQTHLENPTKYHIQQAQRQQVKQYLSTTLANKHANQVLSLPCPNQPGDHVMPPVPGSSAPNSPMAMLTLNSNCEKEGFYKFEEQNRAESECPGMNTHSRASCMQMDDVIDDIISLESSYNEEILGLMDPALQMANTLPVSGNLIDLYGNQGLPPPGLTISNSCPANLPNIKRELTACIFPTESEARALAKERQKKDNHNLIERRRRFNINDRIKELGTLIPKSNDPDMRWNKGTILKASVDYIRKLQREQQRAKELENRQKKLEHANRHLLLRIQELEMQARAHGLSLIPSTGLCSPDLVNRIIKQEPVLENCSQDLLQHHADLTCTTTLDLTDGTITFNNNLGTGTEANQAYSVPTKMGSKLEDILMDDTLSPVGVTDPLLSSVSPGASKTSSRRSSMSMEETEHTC

A-375 = test: A375 melanoma cell viability reduction, dose response, counter-screen for MITF modulator project, cherry-pick samples, set 2 (AID 540335); type: functional, cell-based; details: Homo sapiens
Melanocortin receptor 4 [5] = target: T4, Melanocortin receptor 4 (Homo sapiens, UniProt P32245); type: functional, cell-based;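 note: Cell-based assay with luminescence read-out, confirmatory dose-response testing for agonist activity of biased ligands at MC4R; human U2OS cells with tagged receptor and beta-arrestin; potency of agonists that increase receptor coupling to beta-arrestin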
[6] = Luminescence Cell-Based Dose Retest to Confirm Inhibitors of Cancer Stem Cells. [Related pubchem assays (depositor defined):AID2717, AID2721]; type: functional; details: Homo sapiens
INS1 = test: beta cell apoptosis inhibitors, cytokine rescue, dose response, luminescence, retest (AID 449756); type: functional, cell-based; details: Rattus norvegicus;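 note: cell death triggered by IL-1 beta plus TNF-alpha plus IFN-gamma mixture; protective hits raise ATP signal compared with cytokine alone wells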
[7] = Shn3 3'UTR reporter inhibitors, dose response, cell-based, Clone20 osteoblasts, firefly luciferase, cherry-picked (AID 624132); type: functional;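 note: firefly luciferase luminescence from reporter carrying the Shn3 3'UTR in osteoblasts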
[8] = nonselective inhibitors of cellular cAMP signaling, dose response, counter-screen for MC4R biased antagonist project, cell-based, TR-FRET cAMP detection (AID 602305); type: functional;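 note: U2OS cells stimulated with forskolin near its EC80 as the cAMP inducer; potency is for inhibition of forskolin-stimulated cAMP signaling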
[9] = control 3'UTR Renilla luciferase suppression, dose response, counter-screen for Shn3 inhibitor project, cell-based, Clone20-Shn3RL, cherry-picked (AID 624133); type: functional
[10] = Fluorescence-based cell-based high throughput dose response assay for inhibitors of the interaction of nucleotide-binding oligomerization domain containing 2 (NOD2) and the receptor-interacting serine-threonine kinase 2 (RIPK2).; type: functional; details: Homo sapiens
[11] = HepG2 cell cytotoxicity, dose response, cytotoxicity control for Shn3 inhibitor project, CellTiter-Glo, cherry-picked (AID 624134); type: functional, cell-based
Melanocortin receptor 4 [12] = target: T4, Melanocortin receptor 4; test: MC4R antagonist potency on cAMP, dose response, cell-based, TR-FRET, biased antagonists (AID 602298); type: functional;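 note: antagonist potency against agonist-stimulated cAMP production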
[13] = target: T5, Corticotropin-releasing factor receptor 2/Corticotropin-releasing factor-binding protein (Homo sapiens, UniProt P24387+Q13324); test: activators of CRF receptor 2 with binding protein – uHTS hits, confirmation (AID 602473); type: functional; details: read-out: EC50_Mean
T5 sequence (Q13324 whole entry): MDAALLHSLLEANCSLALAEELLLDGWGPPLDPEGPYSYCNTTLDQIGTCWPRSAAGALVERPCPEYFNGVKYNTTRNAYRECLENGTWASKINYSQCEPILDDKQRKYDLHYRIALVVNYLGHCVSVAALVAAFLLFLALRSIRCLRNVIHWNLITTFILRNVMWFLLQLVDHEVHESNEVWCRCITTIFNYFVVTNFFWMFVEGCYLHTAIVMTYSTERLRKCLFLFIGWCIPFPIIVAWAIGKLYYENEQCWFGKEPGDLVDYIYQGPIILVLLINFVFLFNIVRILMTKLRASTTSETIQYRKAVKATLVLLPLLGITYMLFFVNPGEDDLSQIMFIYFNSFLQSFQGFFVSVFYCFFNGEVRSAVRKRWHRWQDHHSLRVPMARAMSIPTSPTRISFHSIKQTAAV
T5 sequence (P24387 whole entry): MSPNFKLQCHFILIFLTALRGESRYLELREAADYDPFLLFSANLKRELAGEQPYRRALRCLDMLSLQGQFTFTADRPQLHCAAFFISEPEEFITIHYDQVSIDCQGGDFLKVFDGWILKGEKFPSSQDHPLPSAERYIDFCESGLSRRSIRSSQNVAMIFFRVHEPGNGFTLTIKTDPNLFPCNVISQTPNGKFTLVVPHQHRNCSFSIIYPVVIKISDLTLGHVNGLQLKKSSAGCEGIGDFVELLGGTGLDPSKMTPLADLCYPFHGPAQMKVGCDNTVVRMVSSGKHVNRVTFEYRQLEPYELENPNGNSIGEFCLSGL

Vero = Vero cell cytotoxicity, cytotoxicity control for flavivirus capping enzyme inhibitors (AID 588742); type: functional; details: Chlorocebus sabaeus
Genome polyprotein = Genome polyprotein (dengue virus type 2, UniProt P29990); test: Dengue-2 NS5 methyltransferase inhibitors, primary screen, biochemical, confirmation dose response (AID 588689); type: functional
H9c2 = test: cells; type: functional, cell-based; details: Rattus norvegicus, H9c2, Myocardium;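 note: confirmatory concentration-response retest of ultra-high-throughput screening hits for modulation of myocardial damage; cell death induced by hydrogen peroxide oxidative stress; compound pretreatment for 60 min then peroxide exposure for 2 h; potency is for protecting the cells against peroxide damage rather than for killing them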
[14] = THP-1 cell cytotoxicity, cytotoxicity control, set 4 (AID 504911); type: functional; details: Mycobacterium tuberculosis

T4 sequence (P32245 whole entry): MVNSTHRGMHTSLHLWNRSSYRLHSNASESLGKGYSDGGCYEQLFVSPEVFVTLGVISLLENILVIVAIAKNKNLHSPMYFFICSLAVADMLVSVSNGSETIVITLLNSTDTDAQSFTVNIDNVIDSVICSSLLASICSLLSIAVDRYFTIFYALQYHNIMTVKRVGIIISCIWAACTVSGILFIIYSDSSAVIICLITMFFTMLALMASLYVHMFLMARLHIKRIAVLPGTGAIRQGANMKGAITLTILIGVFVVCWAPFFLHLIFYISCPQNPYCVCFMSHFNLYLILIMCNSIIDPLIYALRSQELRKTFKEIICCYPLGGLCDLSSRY
Sequence of Cytochrome P450 3A4 (P08684 whole entry): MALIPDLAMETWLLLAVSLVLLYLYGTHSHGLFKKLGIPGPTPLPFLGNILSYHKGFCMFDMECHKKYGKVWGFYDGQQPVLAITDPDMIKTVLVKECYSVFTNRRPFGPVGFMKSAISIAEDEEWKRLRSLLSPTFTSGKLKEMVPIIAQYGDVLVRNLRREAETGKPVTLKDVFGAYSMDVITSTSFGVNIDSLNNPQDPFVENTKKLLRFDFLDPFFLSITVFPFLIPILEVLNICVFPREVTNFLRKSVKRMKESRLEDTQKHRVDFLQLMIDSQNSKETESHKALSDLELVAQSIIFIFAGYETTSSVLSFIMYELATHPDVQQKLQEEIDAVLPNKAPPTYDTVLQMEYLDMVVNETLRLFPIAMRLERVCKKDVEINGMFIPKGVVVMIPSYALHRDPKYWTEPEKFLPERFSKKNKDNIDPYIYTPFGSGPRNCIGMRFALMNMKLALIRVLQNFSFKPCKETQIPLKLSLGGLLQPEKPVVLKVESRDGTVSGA
Sequence of Genome polyprotein (P29990 2492-3391 limits assumed): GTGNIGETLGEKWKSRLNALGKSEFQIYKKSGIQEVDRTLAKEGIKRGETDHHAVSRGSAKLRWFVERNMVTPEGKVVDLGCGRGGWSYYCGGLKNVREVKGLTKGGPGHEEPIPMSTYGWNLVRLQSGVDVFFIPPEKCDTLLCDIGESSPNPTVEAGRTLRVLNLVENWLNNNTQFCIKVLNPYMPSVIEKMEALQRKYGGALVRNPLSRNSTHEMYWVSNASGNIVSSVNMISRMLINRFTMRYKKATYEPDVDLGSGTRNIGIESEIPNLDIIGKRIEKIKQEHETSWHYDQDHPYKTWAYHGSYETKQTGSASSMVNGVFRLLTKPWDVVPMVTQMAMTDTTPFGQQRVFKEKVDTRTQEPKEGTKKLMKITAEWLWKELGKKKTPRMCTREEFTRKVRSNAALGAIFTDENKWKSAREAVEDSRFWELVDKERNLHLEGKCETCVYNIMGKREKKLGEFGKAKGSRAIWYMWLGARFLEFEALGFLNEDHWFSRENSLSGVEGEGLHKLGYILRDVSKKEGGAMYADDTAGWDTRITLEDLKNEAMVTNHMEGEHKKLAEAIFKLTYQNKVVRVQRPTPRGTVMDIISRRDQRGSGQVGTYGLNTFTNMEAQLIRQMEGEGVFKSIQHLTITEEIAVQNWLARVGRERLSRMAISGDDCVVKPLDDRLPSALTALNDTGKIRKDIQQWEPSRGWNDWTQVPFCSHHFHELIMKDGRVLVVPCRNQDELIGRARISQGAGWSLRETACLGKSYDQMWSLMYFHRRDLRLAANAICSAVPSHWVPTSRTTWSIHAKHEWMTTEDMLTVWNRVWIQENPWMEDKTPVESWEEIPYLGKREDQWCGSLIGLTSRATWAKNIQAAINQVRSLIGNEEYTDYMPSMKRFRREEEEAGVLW

COc1ccc2c(c1)Cc1sc(NC(=O)c3ccccc3)nc1-2
IC50 (Protein skinhead-1): > 100 µM (inactive) | IC50 [1]: 27.5 µM (active) | EC50 [2]: 42.4 µM (active) | EC50 [3]: 31.3 µM (active) | EC50 (H4): 4.58 µM (active)

CC1CC2(CCCCC2)N2C(=O)C(=O)c3cccc1c32 (configuration not stated)
AC50 (Cytochrome P450 3A4): 25.1 µM (inconclusive) | IC50 [1]: 24.4 µM (active)

COc1cccc2c1C(=O)C=C(C)C2=O
AC50 [4]: 7.83 µM (active) | AC50 (A-375): 37.8 µM (active) | IC50 [1]: 14.4 µM (active)

CC(=O)Nc1cc(-c2ccccc2F)cn2c(-c3cccc(C(F)(F)F)c3)cnc12
EC50 (Melanocortin receptor 4 [5]): > 89.2 µM (inactive)

CC1=C(CO)C(=O)OC([C@@H](C)C2CC[C@H]3C4C[C@H]5O[C@]56[C@@H](O)C=CC(=O)[C@]6(C)C4CC[C@]23C)C1 (some centres not stated)
AC50 [6]: 0.982 µM (active) | AC50 (INS1): 7.49 µM (active) | AC50 [7]: 0.674 µM (active) | IC50 [8]: > 64.6 µM (inactive) | AC50 [9]: 1.99 µM (active) | IC50 [10]: 2.65 µM (active) | AC50 [11]: 9.71 µM (active) | EC50 [2]: > 120 µM (not active) | IC50 (Melanocortin receptor 4 [12]): > 64.6 µM (inactive) | EC50 [3]: > 120 µM (not active) | EC50 (H4): > 120 µM (not active)

NC(=O)C1=C(c2ccccc2)c2ccccc2C1=O
EC50 [13]: 11.9 µM (active) | CC50 (Vero): 32.1 µM (active) | IC50 (Genome polyprotein): 59.5 µM (active) | IC50 (H9c2): > 79 µM (inactive)

CCCc1cc(C(N)=S)ccn1 [PROTIONAMIDE]
CC50 [14]: > 100 µM (active)
